Measured values taken from US10155948B2, “Pharmaceutical composition for preventing or treating diabetic complications and screening method for preventive or therapeutic agent for diabetic complications” (KANGWON NATIONAL UNIVERSITY UNIVERSITY-INDUSTRY COOPERATION …, priority 2016, dated 2018).

Biological target: T1, TGase2 (Homo sapiens, UniProt P21980)
T1 sequence (P21980 1-687): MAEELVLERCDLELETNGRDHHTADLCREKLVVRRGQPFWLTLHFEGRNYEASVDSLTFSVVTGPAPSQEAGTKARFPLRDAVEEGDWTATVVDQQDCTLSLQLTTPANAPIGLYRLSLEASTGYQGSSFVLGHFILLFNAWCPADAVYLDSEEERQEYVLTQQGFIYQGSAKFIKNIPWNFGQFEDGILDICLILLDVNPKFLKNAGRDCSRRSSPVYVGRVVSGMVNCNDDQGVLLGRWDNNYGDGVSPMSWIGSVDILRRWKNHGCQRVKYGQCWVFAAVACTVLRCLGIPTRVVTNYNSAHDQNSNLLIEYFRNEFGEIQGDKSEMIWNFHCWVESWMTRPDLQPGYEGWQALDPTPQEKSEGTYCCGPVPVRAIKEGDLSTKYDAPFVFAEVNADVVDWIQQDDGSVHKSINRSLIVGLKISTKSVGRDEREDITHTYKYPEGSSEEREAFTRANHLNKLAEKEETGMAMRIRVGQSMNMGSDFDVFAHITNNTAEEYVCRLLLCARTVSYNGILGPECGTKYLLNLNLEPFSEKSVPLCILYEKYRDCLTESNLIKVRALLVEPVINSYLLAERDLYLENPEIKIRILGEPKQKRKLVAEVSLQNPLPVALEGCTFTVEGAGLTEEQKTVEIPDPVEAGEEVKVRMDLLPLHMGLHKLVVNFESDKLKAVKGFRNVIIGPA
Experiment: In-situ TGase activity by confocal microscopy in VEGF-treated HRECs
Type: cell-based
Parameters: endogenous in cells; host or cells: human retinal endothelial cells (HRECs)
Conditions: 10 ng/ml VEGF 2 hrs, 50 μM cystamine, 20 μM MDC, 5 μM BAPTA-AM, 1 mM NAC, 0.5 μM Trolox, p<0.001
Protocol: HUVEC isolation was done by our own supply and Human retinal endothelial cells (HRECs) were purchased from the Applied Cell Biology Research Institute (Cell Systems, Kirkland, Wash.). Both respectively were grown on 2% gelatin-coated plates in a M199 medium supplemented with 20% fetal bovine serum (FBS), 3 ng/ml basic fibroblastic growth factor, 5 units/ml heparin, 100 units/ml penicillin, and 100 μg/ml streptomycin. For experiments, cells were incubated for 6 hrs in a low-serum medium supplemented with 1% FBS and antibiotics.
In-situ Tgase transamidating activity was determined via confocal microscopic assay according to a previously known procedure. In brief, cells were incubated with 1 mM 5-(biotinamido)pentylamine (BAPA) for 1 hr at 37° C., fixed with 3.7% formaldehyde in PBS for 30 min, and permeabilized with 0.2% Triton X-100 in PBS for 30 min. After incubation with a blocking solution of 2% BSA in 20 mM Tris (pH 7.6), 138 mM NaCl, and 0.1% Tween 20 for 30 min, cells were treated with Cy3-conjugated streptavidin (1:200, v/v) in the blocking solution for 1 hr. Single-cell fluorescence intensities of stained cells were determined using confocal microscopy for 10 randomly selected cells per test. TGase activities were determined by comparing average fluorescence intensities of treated cells with those of control cells (expressed as multiples thereof).
HRECs were transfected with human TGase2-specific siRNA as described previously. In brief, cells were transfected with various concentrations of human TGase2-siRNA or 100 nM control siRNA (Dharmacon, Lafayette, Colo.) using siLentFect lipid reagent (Bio-Rad Laboratories, Hercules, Calif.) according to the manufacturer's instructions. Six hours after transfection with the indicated concentrations, the medium was replaced with a fresh culture medium and the transfected cells were further incubated for 24 hrs.
A detailed description of FIGS. 1A-1F are given below. […] (A, B) HRECs were incubated with 10 ng/ml VEGF for the indicated times (A) or for 2 hrs (B) in the presence of TGase inhibitors (50 μM cystamine and 20 μM MDC), 5 μM Ca^2+ chelator BAPTA-AM, or ROS scavengers (1 mM NAC or 0.5 μM Trolox). In-situ TGase activity was determined by confocal microscopy as described in Research Design and Methods (A: Time course changes in VEGF-induced transglutaminase activation; and B: Effects of various inhibitors on VEGF-induced transglutaminase activation). (C,D) HRECs were transfected with the indicated concentrations (C) or 100 nM (D) of human TGase2-specific siRNA (TGase2 siRNA) or 100 nM control (Ctrl) siRNA. Endothelial cells were treated with 10 ng/ml VEGF and subjected to confocal microscopic determination of in-situ TGase activity (C: Dose-dependent inhibition of TGase2 expression by TGase2 siRNA, TGase2 expression being analyzed by Western blot; and D: TGase2 siRNA prevention of VEGF-induced transglutaminase activation). FIGS. 1E and 1F show the effects of various inhibitors on the elevation of intracellular Ca^2+ (E) and ROS (F). Intracellular Ca^2+ and ROS levels were determined by confocal microscopy as described in Research Design and Methods. Results are expressed as mean±SD from three independent trials (***p<0.001).

VEGF-induced TGase activation (in-situ TGase activity)	Compound
inhibited	Cc1c(C)c2c(c(C)c1O)CCC(C)(C(=O)O)O2 (stereo not drawn) [Trolox]
prevented	CN(C)c1cccc2c(S(=O)(=O)NCCCCCN)cccc12 [MDC, monodansylcadaverine]
prevented	NCCSSCCN [cystamine]
